What all share (type): functional
Assay [1] concerns Staphylococcus aureus. Briefly: Antibacterial activity against Staphylococcus aureus UC9218.
In assay [2] the test system is Staphylococcus aureus. Briefly: Inhibition of transcription/translation in Staphylococcus aureus at 100 uM.
Assay [3] has as its system Staphylococcus aureus. Briefly: Antibacterial activity against Staphylococcus aureus UC9218 in presence of 10% HSA.
The test system of assay [4] is Staphylococcus aureus. Briefly: Antibacterial activity against Staphylococcus aureus UC9218 in presence of 5% HSA.
Assay [5] concerns Staphylococcus aureus. Briefly: Ratio of MIC for Staphylococcus aureus UC9218 in presence of 5% HSA to MIC for Staphylococcus aureus UC9218 in absence of HSA.

The structures appear in SMILES notation. Values after ≈ are worked out from the molar mass of the structure shown. Bounds are passed on as bounds.

The term MIC denotes the lowest concentration found to suppress growth. Usually inhibition stands for the change of the read-out against control, counted positive when it falls. Higher therefore signals a strong effect. Compound `CN(c1ccc(Cl)cc1)S(=O)(=O)c1ccc(C(=O)Nc2ccc(Br)cc2S(N)(=O)=O)cc1` displayed a minimum inhibitory concentration (MIC) in assay [1] of more than 128 µg/mL. The compound further came in with an inhibition at 100 µM in assay [2] of 0%.
For the compound `CN(c1ccc(Cl)cc1)S(=O)(=O)c1ccc(C(=O)Nc2ccc(Br)cc2-c2n[nH]c(=O)o2)cc1`, the MIC in assay [1] was 2 µg/mL (≈ 3.55 µM); in assay [3], more than 128 µg/mL. Also, at 100 µM the inhibition in assay [2] was 60%.
Regarding `CN(c1ccc(Cl)cc1)S(=O)(=O)c1ccc(C(=O)Nc2ccc(Br)cc2NS(=O)(=O)C(F)(F)F)cc1`, in assay [1], it took 32 µg/mL (≈ 51 µM) to inhibit growth (MIC). Further, at 100 µM the inhibition in assay [2] was 72%.
Consider `CN(c1ccc(Cl)cc1)S(=O)(=O)c1ccc(C(=O)Nc2ccc(Br)cc2C(O)(C(F)(F)F)C(F)(F)F)cc1`, for which the results for the MIC in assay [4], in assay [1] and in assay [3] were 64 µg/mL, 0.5 µg/mL (≈ 0.774 µM) and more than 128 µg/mL, respectively. Moreover, the Ratio in assay [5] is 128. Moreover, in assay [2], the inhibition at 100 µM amounted to 41%.
Regarding `CN(c1ccc(Cl)cc1)S(=O)(=O)c1ccc(C(=O)Nc2ccc(Br)cc2CO)cc1`, the MIC in assay [1] was more than 128 µg/mL. Also, in assay [2], the inhibition at 100 µM is 4%.
For `CN(c1ccc(Cl)cc1)S(=O)(=O)c1ccc(C(=O)Nc2ccc(Br)cc2C(N)=O)cc1` the same measures were more than 128 µg/mL and 13%.
In the same order, the values of `Cc1cc(Br)ccc1NC(=O)c1ccc(S(=O)(=O)N(C)c2ccc(Cl)cc2)cc1` are more than 128 µg/mL and 12%.
`CC(=O)c1cc(Br)ccc1NC(=O)c1ccc(S(=O)(=O)N(C)c2ccc(Cl)cc2)cc1` displayed a minimal inhibitory concentration (MIC) in assay [1] of more than 128 µg/mL. In assay [2], at 100 µM the inhibition was 0%.
In the same order, the values of `CC(O)c1cc(Br)ccc1NC(=O)c1ccc(S(=O)(=O)N(C)c2ccc(Cl)cc2)cc1` (stereo unspecified) are more than 128 µg/mL and 7%.
For the compound `CO[C@@H]1[C@@H](OC(N)=O)[C@@H](O)[C@H](Oc2ccc3c(O)c(NC(=O)c4ccc(O)c(CC=C(C)C)c4)c(=O)oc3c2C)OC1(C)C` [NOVOBIOCIN], the MIC in assay [4] is 0.5 µg/mL; in assay [1], more than 0.125 µg/mL; in assay [3], 1 µg/mL.
With `CN(c1ccc(Cl)cc1)S(=O)(=O)c1ccc(C(=O)Nc2ccc(Br)cc2)cc1`, the minimal inhibitory concentration (MIC) in assay [1] was more than 128 µg/mL. Also, testing at 100 µM in assay [2] gave an inhibition of 11%.
For `CN(c1ccc(Cl)cc1)S(=O)(=O)c1ccc(C(=O)Nc2ccc(Br)cc2Cc2nnn[nH]2)cc1` the same measures were more than 128 µg/mL and 46%.
For `CN(c1ccc(Cl)cc1)S(=O)(=O)c1ccc(C(=O)Nc2ccc(Br)cc2NS(C)(=O)=O)cc1` the same measures were more than 128 µg/mL and 19%.
For the compound `CN(c1ccc(Cl)cc1)S(=O)(=O)c1ccc(C(=O)Nc2ccc(Br)cc2C#N)cc1`, in assay [1], the minimal inhibitory concentration (MIC) was more than 128 µg/mL. This compound returned an inhibition at 100 µM in assay [2] of 0%.
In the same order, the values of `CN(c1ccc(Cl)cc1)S(=O)(=O)c1ccc(C(=O)Nc2ccc(Br)cc2Br)cc1` are more than 128 µg/mL and 6%.
In assay [1], `CONC(=O)c1cc(Br)ccc1NC(=O)c1ccc(S(=O)(=O)N(C)c2ccc(Cl)cc2)cc1` registered a minimal inhibitory concentration (MIC) of more than 128 µg/mL. The compound also returned an inhibition at 100 µM in assay [2] of 7%.
Turning to `CN(c1ccc(Cl)cc1)S(=O)(=O)c1ccc(C(=O)Nc2ccc(Br)cc2C(=O)O)cc1`, the minimal inhibitory concentration (MIC) in assay [4] was 128 µg/mL; in assay [1], 8 µg/mL (≈ 15.3 µM); in assay [3], more than 128 µg/mL. Moreover, in assay [5], the Ratio came out at 8. This compound also gave an inhibition at 100 µM in assay [2] of 79%.
On to `CN(c1ccc(Cl)cc1)S(=O)(=O)c1ccc(C(=O)Nc2ccc(Br)cc2-c2nnn[nH]2)cc1`, for which, in assay [1], the MIC came out at 16 µg/mL (≈ 29.2 µM). In assay [2], this compound had an inhibition at 100 µM of 96%.
`CN(c1ccc(Cl)cc1)S(=O)(=O)c1ccc(C(=O)Nc2ccc(Br)cc2-c2noc(=O)[nH]2)cc1`: the minimum inhibitory concentration (MIC) in assay [4] was more than 128 µg/mL; in assay [1] it was 8 µg/mL (≈ 14.2 µM); in assay [3], more than 128 µg/mL. The Ratio in assay [5] is listed as more than 8. In assay [2], this compound had an inhibition at 100 µM of 98%.
In turn, `CN(c1ccc(Cl)cc1)S(=O)(=O)c1ccc(C(=O)Nc2ccc(Br)cc2[N+](=O)[O-])cc1` displayed a minimum inhibitory concentration (MIC) in assay [1] of more than 128 µg/mL. In assay [2], the inhibition at 100 µM turned out to be 0%.

The values above are taken from ChEMBL document CHEMBL1140648, “Structure-activity relationships of bioisosteres of a carboxylic acid in a novel class of bacterial translation inhibitors” (2007).
